According to patent US20230116114A1, “COMPOUNDS AND COMPOSITIONS FOR TREATING CNS DISORDERS” (Blue Oak Pharmaceuticals, Inc., priority 2020, published 2023):
Structures can show the parent of a compound that is named as a salt.

System: mice
Assay: SmartCube in vivo neuropharmacological behavioral assay
Conditions: for minimal effective dose: Mus musculus, ip, 0.25 h, dose having 50% or more total activity in SmartCube, i.p., read-out: MED (minimal effective dose); for AD: antidepressant (percent probability) / AG: analgesic (percent probability) / AP: antipsychotic (percent probability) / AX: anxiolytic (percent probability) / CE: cognitive enhancer (percent probability) / HA: hallucinogenic (percent probability) / MS: mood stabilizer (percent probability) / PS (percent probability) / SD: sedative hypnotic (percent probability) / SE: side effects (percent probability) / UN: uncharacterized CNS activity (percent probability) / XG: anxiogenic (percent probability): SmartCube, i.p. 15 min before test, result at the MED
In short: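 Mice dosed i.p. in NMP (Pharmasolve) 15 min before automated video behavioral testing at several doses (e.g., 0.3-30 mpk). Signatures compared to reference drug classes giving per-class probabilities (0-100); MED is the lowest dose with ≥50% total activity.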

| Compound | minimal effective dose [mg/kg] | AD: antidepressant (percent probability) | AG: analgesic (percent probability) | AP: antipsychotic (percent probability) | AX: anxiolytic (percent probability) | CE: cognitive enhancer (percent probability) | HA: hallucinogenic (percent probability) | MS: mood stabilizer (percent probability) | PS (percent probability) | SD: sedative hypnotic (percent probability) | SE: side effects (percent probability) | UN: uncharacterized CNS activity (percent probability) | XG: anxiogenic (percent probability) |
| --- | --- | --- | --- | --- | --- | --- | --- | --- | --- | --- | --- | --- | --- |
| CC(CF)N1C2CCCC1c1ccccc12 (centres unmarked) [Compound 19, 12-(1-Fluoropropan-2-yl)-12-azatricyclo[6.3.1.0^2,7]dodeca-2,4,6-triene hydrochloride] | 10 to 30 | ++ (5% ≤ X < 25%) | + (LOQ ≤ X < 5%) | + (LOQ ≤ X < 5%) | ++++ (50% ≤ X < 100%) | + (LOQ ≤ X < 5%) | + (LOQ ≤ X < 5%) | + (LOQ ≤ X < 5%) | + (LOQ ≤ X < 5%) | + (LOQ ≤ X < 5%) | + (LOQ ≤ X < 5%) | + (LOQ ≤ X < 5%) | + (LOQ ≤ X < 5%) |
| CC(C1CC1)N1C2CCCC1c1ccccc12 (centres unmarked) [Compound 21, 12-(1-Cyclopropylethyl)-12-azatricyclo[6.3.1.0]dodeca-2,4,6-triene hydrochloride] | 0.1 to 1 | +++ (25% ≤ X < 50%) | ++ (5% ≤ X < 25%) | + (LOQ ≤ X < 5%) | ++ (5% ≤ X < 25%) | + (LOQ ≤ X < 5%) | + (LOQ ≤ X < 5%) | + (LOQ ≤ X < 5%) | + (LOQ ≤ X < 5%) | + (LOQ ≤ X < 5%) | + (LOQ ≤ X < 5%) | + (LOQ ≤ X < 5%) | + (LOQ ≤ X < 5%) |
| CC(C)C(C)N1C2CCCC1c1ccccc12 (centres unmarked) [Compound 22, 12-(3-Methylbutan-2-yl)-12-azatricyclo[6.3.1.0^2,7]dodeca-2,4,6-triene hydrochloride] | 1 to 10 | ++ (5% ≤ X < 25%) | + (LOQ ≤ X < 5%) | + (LOQ ≤ X < 5%) | + (LOQ ≤ X < 5%) | + (LOQ ≤ X < 5%) | + (LOQ ≤ X < 5%) | + (LOQ ≤ X < 5%) | + (LOQ ≤ X < 5%) | + (LOQ ≤ X < 5%) | + (LOQ ≤ X < 5%) | ++++ (50% ≤ X < 100%) | + (LOQ ≤ X < 5%) |
| CC[C@@H](C)N1C2CCCC1c1ccccc12 [Compound 25, 12-[(2R)-Butan-2-yl]-12-azatricyclo[6.3.1.0^2,7]dodeca-2,4,6-triene hydrochloride] | 1 to 10 | ++++ (50% ≤ X < 100%) | + (LOQ ≤ X < 5%) | + (LOQ ≤ X < 5%) | + (LOQ ≤ X < 5%) | + (LOQ ≤ X < 5%) | + (LOQ ≤ X < 5%) | + (LOQ ≤ X < 5%) | ++ (5% ≤ X < 25%) | + (LOQ ≤ X < 5%) | + (LOQ ≤ X < 5%) | + (LOQ ≤ X < 5%) | + (LOQ ≤ X < 5%) |
| CC[C@H](C)N1C2CCCC1c1ccccc12 [Compound 26, 12-[(2S)-Butan-2-yl]-12-azatricyclo[6.3.1.0^2,7]dodeca-2,4,6-triene hydrochloride] | 1 to 10 | ++++ (50% ≤ X < 100%) | + (LOQ ≤ X < 5%) | + (LOQ ≤ X < 5%) | + (LOQ ≤ X < 5%) | + (LOQ ≤ X < 5%) | ++ (5% ≤ X < 25%) | + (LOQ ≤ X < 5%) | ++ (5% ≤ X < 25%) | + (LOQ ≤ X < 5%) | + (LOQ ≤ X < 5%) | + (LOQ ≤ X < 5%) | + (LOQ ≤ X < 5%) |
| CC(C)N1C2CCC(O)C1c1ccccc12 (centres unmarked) [Compound 27, 12-(propan-2-yl)-12-azatricyclo[6.3.1.0^2,7]dodeca-2,4,6-trien-9-ol hydrochloride] | 10 to 30 | +++ (25% ≤ X < 50%) | ++ (5% ≤ X < 25%) | + (LOQ ≤ X < 5%) | ++ (5% ≤ X < 25%) | + (LOQ ≤ X < 5%) | ++ (5% ≤ X < 25%) | + (LOQ ≤ X < 5%) | ++ (5% ≤ X < 25%) | + (LOQ ≤ X < 5%) | + (LOQ ≤ X < 5%) | + (LOQ ≤ X < 5%) | + (LOQ ≤ X < 5%) |
| CC1CC2NC(C1)c1ccccc12 (centres unmarked) [Compound 29, 10-Methyl-12-azatricyclo[6.3.1.0^2,7]dodeca-2,4,6-triene hydrochloride] | 1 to 10 | ++ (5% ≤ X < 25%) | ++ (5% ≤ X < 25%) | + (LOQ ≤ X < 5%) | +++ (25% ≤ X < 50%) | + (LOQ ≤ X < 5%) | + (LOQ ≤ X < 5%) | + (LOQ ≤ X < 5%) | + (LOQ ≤ X < 5%) | + (LOQ ≤ X < 5%) | + (LOQ ≤ X < 5%) | + (LOQ ≤ X < 5%) | + (LOQ ≤ X < 5%) |
| FC1CCC2NC1c1ccccc12 (centres unmarked) [Compound 30, 9-Fluoro-12-azatricyclo[6.3.1.0^2,7]dodeca-2,4,6-triene hydrochloride] | > 30 | + (LOQ ≤ X < 5%) | + (LOQ ≤ X < 5%) | + (LOQ ≤ X < 5%) | ++ (5% ≤ X < 25%) | + (LOQ ≤ X < 5%) | + (LOQ ≤ X < 5%) | + (LOQ ≤ X < 5%) | + (LOQ ≤ X < 5%) | + (LOQ ≤ X < 5%) | + (LOQ ≤ X < 5%) | + (LOQ ≤ X < 5%) | + (LOQ ≤ X < 5%) |
| CC(C)N1[C@@H]2C[C@@H](C)C[C@H]1c1ccccc12 [Compound 31, 10-Methyl-12-(propan-2-yl)-12-azatricyclo[6.3.1.0^2,7]dodeca-2,4,6-triene hydrochloride] | 1 to 10 | ++++ (50% ≤ X < 100%) | + (LOQ ≤ X < 5%) | + (LOQ ≤ X < 5%) | + (LOQ ≤ X < 5%) | + (LOQ ≤ X < 5%) | ++ (5% ≤ X < 25%) | + (LOQ ≤ X < 5%) | ++ (5% ≤ X < 25%) | + (LOQ ≤ X < 5%) | + (LOQ ≤ X < 5%) | + (LOQ ≤ X < 5%) | + (LOQ ≤ X < 5%) |
| CC(C)N1C2CCC(F)C1c1ccccc12 (centres unmarked) [Compound 35, 9-Fluoro-12-(propan-2-yl)-12-azatricyclo[6.3.1.0^2,7]dodeca-2,4,6-triene hydrochloride] | > 30 | + (LOQ ≤ X < 5%) | ++ (5% ≤ X < 25%) | + (LOQ ≤ X < 5%) | ++ (5% ≤ X < 25%) | + (LOQ ≤ X < 5%) | + (LOQ ≤ X < 5%) | + (LOQ ≤ X < 5%) | + (LOQ ≤ X < 5%) | + (LOQ ≤ X < 5%) | + (LOQ ≤ X < 5%) | + (LOQ ≤ X < 5%) | + (LOQ ≤ X < 5%) |
| CC1CC2c3ccccc3C(C1)N2C1CCC1 (centres unmarked) [Compound 36, 12-Cyclobutyl-10-methyl-12-azatricyclo[6.3.1.0^2,7]dodeca-2,4,6-triene hydrochloride] | 1 to 10 | ++++ (50% ≤ X < 100%) | + (LOQ ≤ X < 5%) | + (LOQ ≤ X < 5%) | + (LOQ ≤ X < 5%) | + (LOQ ≤ X < 5%) | ++ (5% ≤ X < 25%) | + (LOQ ≤ X < 5%) | + (LOQ ≤ X < 5%) | + (LOQ ≤ X < 5%) | + (LOQ ≤ X < 5%) | ++ (5% ≤ X < 25%) | + (LOQ ≤ X < 5%) |
